Source: PubChem BioAssay AID179 (DTP/NCI, 2004)
pEC50, pIC50: −log10 of the molar value. “And” between values parts separate entries of the source, which are not always exact repeats. Identical values can stand only once. The source made the active and inactive calls.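 Rule for the calls: active = compounds giving half or more protection of infected cells from virus-caused growth loss, again on retest; inactive = the rest.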 Where a SMILES comes first, the peptide text is derived from it.

Tested on: CEM cells HIV-1 protection, formazan growth assay
Assay: NCI AIDS Antiviral Assay
Details: for pIC50: measured here: growth of uninfected CEM cells
Procedure, shortened: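 Human CEM cells, uninfected and HIV-1-infected, received five drug concentrations, and growth was read by soluble formazan assay. Compounds giving at least 50% protection were retested; reproducible 100% protection defined confirmed active.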

Row | SMILES | pEC50 | pIC50 | outcome
1 | CCC[CH2][Sn]([CH2]CCC)([O]C(=O)c1cc(F)cc(F)c1)[O][Sn]([CH2]CCC)([CH2]CCC)[O]C(=O)c1cc(F)cc(F)c1 | < 5.04 | 5.75 | –
2 | C=CCCOC(=O)CO[N+](=O)[O-] | – | – | inactive
3 | O=C1CCCSCCCC(=O)CCCSCCC1 | < 4.46 | < 4.46 | –
4 | Cc1ccc(Cl)c(NC(=O)C(=O)C(C(=O)c2ccncc2)C2OC(=O)c3ccccc32)c1 (stereo unspecified) | < 3.25 | 3.78 | –
5 | O=C1c2ccccc2CC1(Br)C(Br)c1ccccc1 (stereo unspecified) | < 3.70 | 4.97 and 5.00 | –
6 | Cc1cc(C)c(-n2c(-c3ccc(Br)cc3)cs/c2=N\N=C2C=C(C(C)(C)C)C(=O)C(C(C)(C)C)=C2)c(C)c1 | < 5.61 | < 5.61 | –
7 | CC(C)(C)C1CCC2(CC1)c1[nH]c3ccccc3c1C1(CCC(C(C)(C)C)CC1)c1[nH]c3ccccc3c12 (stereo unspecified) | < 5.13 | < 5.13 | –
8 | CNc1nc(N)c(N=O)c(Nc2ccc(Br)cc2)n1 | < 3.70 | 3.77 | –
9 | O=C(CC(c1ccccc1)C(C(=O)c1ccncc1)C(CC(=O)c1ccncc1)c1ccccc1)c1ccncc1 (stereo unspecified) | < 3.70 | < 3.70 | –
10 | c1ccc(N2CCN(CCCN3CCc4c([nH]c5ccccc45)C3c3cccnc3)CC2)cc1 (stereo unspecified) | < 5.66 | < 5.66 | –
11 | CC(=O)O[C@]1(C)CCC2C(C)C(=O)OC2C2C(C)[C@@H](O)CC21 (stereo partly specified) | < 3.70 | 4.46 | –
12 | Cc1nc(C(N)=S)sc1C(=O)C/C(=N/N)C(=O)Nc1ccc(Cl)cc1 | < 3.62 | < 3.62 | –
13 | O=C(O)c1ccc(SSc2ccc(C(=O)O)cc2)cc1 | 3.91 | < 3.70 | –
14 | CC(Sc1ccccc1)C(=O)N1CCCC1 (stereo unspecified) | < 4.00 | < 4.00 | –
15 | Cc1cc2c(cc1Cl)SC(C(=O)c1cccc([N+](=O)[O-])c1)=NS2(=O)=O | 3.92 | < 3.70 | –
16 | COc1ccc(/C=C2\SC(=S)N(/C=C3\C(=O)N(c4ccccc4)N=C3C)C2=O)cc1OC | < 3.70 | 4.55 | –
17 | CCOC(=O)c1cc2cc(C)cc(C(=O)c3ccc([N+](=O)[O-])cc3)c2[nH]1 | < 3.70 | < 3.70 | –
18 | O=C1OC(Cl)(C(Cl)(Cl)Cl)C(=O)OC1(Cl)C(Cl)(Cl)Cl (stereo unspecified) | < 3.70 | < 3.70 | –
19 | CC(C)=N.[C-]#[O+].[C-]#[O+].[C-]#[O+].[C-]#[O+].[C-]#[O+].[W] | < 4.86 | < 4.86 | –
20 | CC(C)S(=O)(=O)O | < 3.70 | < 3.70 | –
21 | COC(=O)Cc1nc2ccccc2o1 | < 2.89 | 4.47 | –
22 | COC(=O)c1ccc2cc(O)c(O)cc2c1 | < 3.70 | 4.65 | –

Row | SMILES | pEC50 | pIC50 | outcome
23 | CC(C)(CO)C(O)C(=O)NCCS(=O)(=O)O (stereo unspecified) | < 3.70 | < 3.70 | –
24 | C/C=C(/C)C(=O)O[C@H]1[C@H](O)CC(c2ccc3c(c2O)C(O)=C2C(=O)C4(OC)C(O)=C(C(N)=O)C(=O)[C@H](CC(=O)c5ccccc5O)C4CC2[C@@]3(C)OC)O[C@@H]1C (stereo partly specified) | < 5.70 | 9.20 | –
25 | CCOC(=O)C1=CN(Cc2ccccc2)C2ON=C(c3ccc(Cl)cc3)C2C1 (stereo unspecified) | < 3.70 | 4.50 | –
26 | CCOC(=O)/C(F)=C/c1ccc(C)cc1 | < 3.90 | < 3.90 | –
27 | COC(=O)c1cncc2c1CC1C3(C(=O)OC)C=NC(C4C(CO)=CCC43)C21C (stereo unspecified) | – | – | inactive
28 | CC(C)c1cccc(C(C)C)c1N=C(N)C#N | < 3.71 | 4.03 | –
29 | Cc1nc2ccccc2c(=O)n1-c1ccccc1Cl | < 3.74 | 3.83 | –
30 | CS/C1=C(\c2ccc(C)cc2)N(c2ccccc2)C(=O)C(=O)N(c2ccccc2)/C(c2ccc(C)cc2)=C(/SC)SS1 | < 3.70 | 4.32 | –
31 | O=S1(=O)C(c2ccccc2)=C(O)c2cc3ccccc3nc21 | – | – | inactive
32 | CCOC(=O)C1=C(N)Oc2cc(O)cc(O)c2C1c1ccccc1 (stereo unspecified) | – | – | inactive
33 | CC1CC2C(=O)NC(=O)C2c2[nH]c3ccccc3c21 (stereo unspecified) | – | – | inactive
34 | CN(C(=O)c1ccc(Cl)s1)C(=S)N(C)C(=O)c1ccc(Cl)s1 | < 3.92 | 3.94 | –
35 | C/C(CC1C2CCCC1C2)=N\NC(N)=O (stereo unspecified) | < 4.00 | < 4.00 | –
36 | O=c1cc(N2CCNCC2)nc2ccccn12 | < 3.70 | < 3.70 | –
37 | Cc1ccc(S(=O)(=O)C(CC(=O)N2CCCC2)C(=O)c2ccccc2)cc1 (stereo unspecified) | < 4.03 | 4.81 | –
38 | CN1C(=O)/C(=N\n2c(-c3ccccc3)nc3ccccc3c2=O)c2cc(Br)ccc21 | < 3.70 | < 3.70 | –
39 | CC1(C)CCCCCCC2OC2CCCCCC(C)(C)C1=O (stereo unspecified) | < 3.70 | 4.42 | –
40 | c1cnn(C23C4C5C6C4C2C6C53)c1 (stereo unspecified) | < 3.70 | < 3.70 | –
41 | Cc1ccc(/C=C2\Sc3scc(-c4ccccc4)[n+]3C2=O)cc1 | < 3.70 | 4.05 | –
42 | CCOC(=O)CC(=O)N(c1ccc(OC)cc1)C(C(=O)OC)c1ccccc1 (stereo unspecified) | < 3.70 | 3.78 | –
43 | c1ccc(-c2cc(=[N+]3CCOCC3)c3ccccc3o2)cc1 | – | – | inactive
44 | Cc1cc(O)c2c(c1)C([C@]13Cc4cc(O)c5c(c4[C@H]1C=C[C@@H](O)C3O)C(=O)c1c(O)ccc(O)c1C5=O)OC2=O (stereo partly specified) | < 5.18 | < 5.18 | –

Row | SMILES | pEC50 | pIC50 | outcome
45 | Clc1ccc(Nc2ncco2)cc1Cl | < 3.70 | 3.97 | –
46 | CCOC(=O)/C(=C\c1ccccc1)C(=O)O | < 2.95 | 3.62 | –
47 | O=C(O)c1ccccc1C(=O)c1ccc(F)cc1 | – | – | inactive
48 | CN(C)N1C(=O)C(=O)N(c2cccc3ccccc23)C1=O | < 3.70 | < 3.70 | –
49 | Cn1cnc(CCc2ccccc2)n1 | < 2.95 | < 2.95 | –
50 | CCOC(=O)C(Cc1ccc([N+](=O)[O-])cc1)NC(=O)CC1c2ccccc2-c2ccccc21 (stereo unspecified) | < 4.93 | < 4.93 | –
51 | COc1ccc(/C=C2\CCCC(C(NO)c3ccc(OC)cc3)C2=NO)cc1 (stereo unspecified) | < 4.72 | < 4.72 | –
52 | CCCc1cc(=O)oc2c3c(c4c(c12)OC(C)(C)C=C4)O[C@H](C)[C@@H](C)[C@@H]3OC(=O)CCl | 5.34 | 4.80 | –
53 | CC1(C)Oc2ccc3ccc(=O)oc3c2[C@@H](OC(=O)C23CCC(C)(C(=O)O2)C3(C)C)[C@H]1OC(=O)C12CCC(C)(C(=O)O1)C2(C)C (stereo partly specified) | 5.53 | 4.85 | –
54 | Cc1ccc2c(c1)CC1(C2=O)[C@H](c2ccccc2)C2C(=O)c3ccc(C)cc3C2[C@H]1c1ccccc1 (stereo partly specified) | < 3.70 | – | –
55 | Cc1ccc(S(=O)(=O)C2=Cc3ccc(C(F)(F)F)cc3C2(O)c2cccc(C(F)(F)F)c2)cc1 (stereo unspecified) | < 3.70 | 5.66 | –
56 | Oc1cccc2nc3cc(CN4CCOCC4)c(CN4CCOCC4)cc3nc12 | < 4.74 | < 4.74 | –
57 | NC(N)=N/N=C/c1c(Cl)nc2n1CCS2 | < 3.70 | 3.99 | –
58 | Cc1cccc(Nc2cn(CCOc3ccccc3)c(=O)n(CCOc3ccccc3)c2=O)c1 | < 3.70 | < 3.70 | –
59 | CC(C)(C)OC(=O)NCC(=O)NCC(=O)NCC(=O)NCC(=O)O (HELM PEPTIDE1{[CC(C)(C)OC(=O)[*:2]].G.G.G.G}$$$$V2.0) | < 3.14 | < 3.14 | –
60 | O=S(=O)(O)c1ccc2c(c1)NN(c1ccc(/C=C/c3ccc(N=Nc4ccc(/C=C/c5ccc(N6Nc7ccc(S(=O)(=O)O)cc7N6)cc5S(=O)(=O)O)c(S(=O)(=O)O)c4)cc3S(=O)(=O)O)c(S(=O)(=O)O)c1)N2 | 4.91 | 3.91 | –
61 | N#Cc1cccc(CSc2ncnc3nc[nH]c23)c1 | < 3.70 | 4.09 | –
62 | COc1cc(-c2oc(C=Nc3ccccc3)c([N+](=O)[O-])c2-c2ccc(O)c(OC)c2)ccc1O | < 3.70 | 5.12 | –
63 | COc1cc2c3c(c1OC)-c1cc4c(cc1CC3(C#N)N(C(=O)c1ccccc1)CC2)OCO4 (stereo unspecified) | – | – | inactive
64 | C[C@H](NS(=O)(=O)c1ccc(NC(=O)c2ccccc2)cc1)C(=O)O | – | – | inactive
65 | COc1cc(C2c3cc4c(cc3OC(N3CCOCC3)C2C)OCO4)ccc1O (stereo unspecified) | < 3.70 | 5.29 | –
66 | NNc1ncnc2c1ncn2C1OC(CO)CC1F (stereo unspecified) | < 3.83 | < 3.83 | –

Row | SMILES | pEC50 | pIC50 | outcome
67 | CCOC(=O)c1nnsc1NC(=O)NCCCCCCn1c(=O)n(CCCCCCNC(=O)Nc2snnc2C(=O)OCC)c(=O)n(CCCCCCNC(=O)Nc2snnc2C(=O)OCC)c1=O | < 3.70 | < 3.70 | –
68 | CCOC(=O)/C(Cc1cc(=O)n(C)c2ccccc12)=N\Nc1ccccc1 | < 3.70 | < 3.70 | –
69 | COc1ccc(C2=C/C(=C/c3ccc(O)cc3O)C(=O)O2)cc1 | < 3.70 | 4.44 | –
70 | COc1cc(-c2ccccc2)cn2c1nc1ccccc12 | < 3.70 | 4.94 | –
71 | CCCCCCCCNC(=O)SCCCC | – | – | inactive
72 | O=C1CCC[C@]2(CCCC(=O)N2)C1 | – | – | inactive
73 | COc1ccc(C(CC(=O)O)c2ccccc2)cc1 (stereo unspecified) | < 3.15 | 3.30 | –
74 | COC(=O)[C@]12CCC(C)[C@H](C)[C@H]1C1=CCC3[C@@]4(C)CC[C@H](OC(C)=O)C(C)(C)C4CC[C@@]3(C)C1(C)C(O)C2 (stereo partly specified) | – | – | inactive
75 | CC(=O)/C=C/CCC(=O)/C=C/C(=O)OC(CCC(=O)/C=C/C(=O)O)CC(C)=O (stereo unspecified) | < 3.70 | 3.94 | –
76 | CCNC(=O)N(CC)CN(CC)C(=O)NCC | < 3.74 | 4.02 | –
77 | CCOC(COc1c2occc2cc2ccc(=O)oc12)OCC | < 3.85 | 4.29 | –
78 | Cc1nc(N)c2cnn(C)c2n1 | < 2.82 | 3.15 | –
79 | Cc1c(Cl)ccc2c1NC(=O)C2(O)CC(=O)c1ccc2ccccc2c1 (stereo unspecified) | < 4.71 | < 4.71 | –
80 | COc1ccc2[nH]cc(CCNC(C)=O)c2c1 | < 3.70 | < 3.70 | –
81 | O=C1CSC2=NC3=C(CSC/C3=C\c3ccc(Cl)cc3)C(c3ccc(Cl)cc3)N12 (stereo unspecified) | < 3.70 | 5.01 | –
82 | CC1(C)CCC[C@@]2(C)C1CC[C@H]1CC(O)C3(C)CCC12C3 (stereo partly specified) | < 4.91 | < 4.91 | –
83 | Cn1cnc(N)c1S(=O)(=O)Nc1ccccc1Cl | < 3.25 | < 3.25 | –
84 | O=C1NC2CC=CCC12 (stereo unspecified) | < 2.69 | < 2.69 | –
85 | CCC12C[N+]3([O-])CCc4c([nH]c5ccccc45)C(C(=O)OC)(c4cc5c(cc4OC)N(C)C4C(O)(C(=O)OC)C(OC(C)=O)C6(CC)C=CCN7CCC54C76)CC(C3)C1O2 (stereo unspecified) | – | – | inactive
